Data published in ChEMBL document CHEMBL1127185, “4-Aryltetrahydropyridines as selective ligands” (Bioorg Med Chem Lett, 1993).

Experiments:
[1] = biological target: D(2) dopamine receptor (Rattus norvegicus, UniProt P61169); assay: Binding affinity against Dopamine receptor D2 in rat striatum using [3H]spiperone; format: tissue-based
[2] = test system: Rattus norvegicus; assay: Tested for the inhibition of dopamine firing at 2.5 mg/kg by intraperitoneal administration; format: functional; conditions: ip
[3] = test system: Mus musculus; assay: Tested for effective dose causing inhibition of mouse locomotor activity by intraperitoneal administration; format: functional; conditions: ip
[4] = test system: Rattus norvegicus; assay: Tested for the inhibition of dopamine synthesis at 10 mg/kg by intraperitoneal administration; format: functional; conditions: ip
[5] = test system: Rattus norvegicus; assay: Tested for the inhibition of dopamine firing at 2.5 mg/Kg by intraperitoneal administration; format: functional; conditions: ip
[6] = test system: Rattus norvegicus; assay: Tested for the inhibition of dopamine synthesis at 10 mg//Kg by intraperitoneal administration; format: functional

D(2) dopamine receptor, sequence (P61169 whole entry): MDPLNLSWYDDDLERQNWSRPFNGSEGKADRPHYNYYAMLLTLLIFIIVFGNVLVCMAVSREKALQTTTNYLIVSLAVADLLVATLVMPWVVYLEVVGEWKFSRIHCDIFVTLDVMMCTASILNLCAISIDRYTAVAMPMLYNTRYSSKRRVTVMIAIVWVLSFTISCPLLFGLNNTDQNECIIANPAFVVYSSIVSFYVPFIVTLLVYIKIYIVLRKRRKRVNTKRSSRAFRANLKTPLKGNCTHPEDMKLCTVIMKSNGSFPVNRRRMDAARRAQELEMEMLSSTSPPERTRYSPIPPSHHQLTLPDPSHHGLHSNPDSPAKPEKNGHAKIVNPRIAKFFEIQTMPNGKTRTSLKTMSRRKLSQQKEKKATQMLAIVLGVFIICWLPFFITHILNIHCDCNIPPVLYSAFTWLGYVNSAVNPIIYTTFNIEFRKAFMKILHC

C1=C(c2ccc3ccccc3c2)CCN(CCCCc2ccncc2)C1
Ki [1]: 660 nM

Clc1ccc(C2=CCN(CCCCc3ccncc3)CC2)cc1
Ki [1]: 456 nM

Fc1ccc(C2=CCN(CCCCc3ccncc3)CC2)cc1
inhibition in vivo at 2.5 mg/kg [2]: 9% | Ki [1]: 5310 nM | ED50 [3]: 3.8 mg/kg | inhibition in vivo at 10 mg/kg [4]: 0%

C1=C(c2cccs2)CCN(CCCCc2ccncc2)C1
Ki [1]: 496 nM

C1=C(c2c[nH]c3ccccc23)CCN(CCCCc2ccncc2)C1
Ki [1]: 286 nM

Cc1ccc(C2=CCN(CCCCc3ccncc3)CC2)cc1
Ki [1]: 957 nM

COc1ccc(C2=CCN(CCCCc3ccncc3)CC2)cc1
inhibition in vivo at 2.5 mg/kg [2]: 6% | Ki [1]: 1640 nM | ED50 [3]: 7.4 mg/kg | inhibition in vivo at 10 mg/kg [4]: 18%

C1=C(c2ccccn2)CCN(CCCCc2ccncc2)C1
Ki [1]: 322 nM

C1=C(c2ccccc2)CCN(CCCCc2ccncc2)C1
inhibition in vivo at 2.5 mg/kg [5]: 80% | Ki [1]: 69.1 nM | ED50 [3]: 0.6 mg/kg | Inhibition [6]: 87%
